The text below walks through data of PMC5573760 (Cancer Chemotherapy and Pharmacology, 2017).

Data set [1] is described as follows: clinical. The following applies: for Tmax: male, human, in vivo, iv, t max. On the procedure: All subjects gave written informed consent; the study was conducted at PRA Health Sciences (Zuidlaren, The Netherlands) in accordance with the Declaration of Helsinki and was approved by an accredited institutional ethics committee (Medisch Ethische Toetsings Commissie, Assen, The Netherlands).
Subjects remained fasting until 2-h after the end of the infusion. Volunteers stayed in-house until 14 days after the application and subsequently urine and feces were collected for 24-h on Day 16, 20, 27 and 34 if necessary, cf. below.
Urine was collected pre-dose, at 0–12-h and 12–24 h after the start of the infusion and thereafter over 24-h intervals on Day 2 to Day 14 as well as on Day 16, 20, 27 and 34 (±1 day). Cumulative 24-h fecal samples were collected from Day 1 (day of infusion) to Day 14 and as well as on Day 16, 20, 27 and 34 (±1 day). […] The excreted radioactivity between ambulant visits during the prolongation phase of the clinical study was calculated using interpolation to get a more realistic total excretion value of all subjects (see "Pharmacokinetic analysis").
All samples were frozen at −70 °C and analyzed within 60 days of sample collection.
For blood/plasma ratio determination, total radioactivity in urine and feces well as data from HPLC analysis data from radioactivity measurement by liquid scintillation counting (LSC) were considered. The amount of radioactivity recovered in the excreta (A E) was related to the administered radioactive dose to establish the radioactive balance. Arithmetic means and coefficients of variation (CV) were calculated for these percentages. […] Cumulative excretion was calculated as sum of the collection intervals. The elimination of the total radioactivity in urine and feces for time-points beyond day 14 was performed by log-linear extrapolation between analyzed time-points. Amounts of radioactivity excreted in urine and feces between two ambulant visits were calculated per interpolated day by linear interpolation of log-transformed excretion data separately per matrix (lnA E(interpolated day) = Δdays × [lnA E(Visit i + 1) − lnA E(Visit i)]/[day (Visit i + 1) − day (Visit i)] + lnA E(Visit i), with A E given as amount of radioactivity excreted in matrix per day and Δdays being the difference between the calculated day and the last available visit with A E > 0). In case no feces sample was provided on an ambulant visit, this visit was neglected for interpolation. A similar approach has been described earlier. The concentration/amount for each component of each sample/time-point was calculated by multiplying the total radioactivity concentration/amount of each sample with %-area of each component obtained after off-line HPLC separation. The amount of radioactivity in urine and feces at late time-points where no component was detected was distributed in the same percentage to the component (s) present at the time-point before.
Compartment-free analysis was performed employing WinNonlin software (version 5.3, Pharsight Certara, Princton, NJ, USA).
Pharmacokinetic parameters were evaluated by descriptive data analysis without formal hypothesis testing by calculating either medians (t max, t last) or geometric means and %CV (remaining parameters). Excretion data (urine, feces, total) were evaluated by arithmetic means.

Data set [2] is described as follows: Mass balance: excretion of radioactivity, copanlisib and metabolites in urine and feces. Type of data set: in vivo, human. The following applies: 6 subjects; for Amount excreted in feces as this component, arithmetic mean (range) / Amount excreted in urine as this component, arithmetic mean (range): HPLC with off-line radioactivity detection; for Amount of dose recovered as this component in urine and feces combined: urine plus feces. On the procedure:
After pooling and homogenization of urine and feces samples per time interval, aliquots were stored at −20 °C for total radioactivity determination and at −70°C for metabolic profiling (including blood/plasma samples). For determination of total radioactivity, samples were analyzed with a Perkin Elmer Tri-Carb™ 3100 TR liquid scintillation analyzer (Perkin Elmer, Waltham, MA, USA) with quenching correction. For metabolite profiling, plasma samples were treated with a mixture of acetonitrile (ACN) +0.2% acetic acid, after shaking and centrifugation, the supernatant was concentrated. Urine and feces samples were treated with solid-phase extraction (Waters HLB 30 mg, 1 mL, Waters, Milford, MA, USA) and liquid–liquid extraction (ACN + 0.2% trifluoroacetic acid/water, 80:20 volume/volume), respectively. Subsequently samples from plasma, urine and feces were analyzed by HPLC-LSC on Synergi Polar 4 µm 150 × 2 mm (Phenomenex, Aschaffenburg, Germany) with off-line radioactivity detection by Microbeta^2™ Plus liquid scintillation counter with Ultima Flo™ AP scintillation fluid (Packard Instrument BV, Groningen, The Netherlands).
Metabolite patterns in plasma, urine and feces were studied by the HPLC method with off-line radioactivity detection described above.
A similar approach has been described earlier.

In data set [3] the test system is clinical target (PI3K). Also on record: method as in Bayer AG, data on file. The note with it: ref Bayer AG, data on file; cited from earlier work.

For `COc1c(OCCCN2CCOCC2=O)ccc2c1N=C(NC(=O)c1cnc(N)nc1)N1CCN=C21` [M1], in data set [1] (median), the Tmax was 6 h. The Tmax in data set [1] (range) lay within 3 to 10 h. In addition, the “Range of AUC (0–t last) (LC–MS)” value in data set [1] (plasma, t last defined by the time-point with detectable radioactivity, range of 6 subjects) is reported as 4.36–37.8 ng-Eq·h/mL. Also, in data set [2], the “Amount excreted in feces as this component, arithmetic mean (range)” value (from here on “Amount excreted in feces”) is listed as 6.39 (4.34–8.66) % of dose; the “Amount of dose recovered as this component in urine and feces combined” value (shortened to “Amount of dose recovered”) is given as 11.1 % of dose; the “Amount excreted in urine as this component, arithmetic mean (range)” value (from here on “Amount excreted in urine”) is 4.47 (2.53–6.79) % of dose. Also, the “Affinity to the clinical target relative to parent compound” value in data set [3] is on record as “same order of magnitude as found for the parent compound”.

With `COc1c(OCCC(=O)O)ccc2c1N=C(NC(=O)c1cnc(N)nc1)N1CCN=C21` [M2], in data set [2], the “Amount excreted in feces” value is on record as 11.8 (9.91–13.0) % of dose and the “Amount excreted in urine” value is reported as 0.34 (0.10–0.52) % of dose.

For `COc1c(OCCCNCCO)ccc2c1N=C(NC(=O)c1cnc(N)nc1)N1CCN=C21` [M3], in data set [2], the “Amount excreted in feces” value is 7.32 (5.61–11.6) % of dose and the “Amount excreted in urine” value was 0.32 (0–0.62) % of dose.

For the compound `COc1c(O)ccc2c1N=C(NC(=O)c1cnc(N)nc1)N1CCN=C21` [M4], in data set [2], the “Amount excreted in feces” value is 5.61 (1.74–9.53) % of dose and the “Amount excreted in urine” value is on record as 0.15 (0.04–0.32) % of dose.

Regarding `COc1c(OCCCO)ccc2c1N=C(NC(=O)c1cnc(N)nc1)N1CCN=C21` [M15], the “Amount of dose recovered” value in data set [2] is recorded as < 2 % of dose.

Regarding `COc1c(OCCCN(C=O)CCO)ccc2c1N=C(NC(=O)c1cnc(N)nc1)N1CCN=C21` [M21], the “Amount of dose recovered” value in data set [2] is listed as < 2 % of dose.

The term Tmax denotes the time at which the peak concentration occurs.
